Experimental data: US20250320213A1, “Nitrogen-Containing Heterocyclic Compounds” (Pfizer Inc., priority 2024, published 2025)
Where a name gives a salt, the structure may show the parent alone. Read-outs that look alike come from different tables or passages of the source.

Assays:
[1] = target: T1, STAT6 (Homo sapiens, UniProt P42226); test: STAT6 Reporter Luciferase Assay (IL-13 stimulated HaCaT keratinocyte NanoLuc reporter cells); assay type: cell-based; settings: read-out: Reporter EC50
T1 construct: stably transfected HaCaT keratinocyte cell line, which expresses NanoLuc luciferase reporter gene under the transcriptional control of the STAT6 responsive promoter; endogenous in cells; host or cells: HaCaT keratinocyte reporter cell line (stably transfected with a NanoLuc reporter)
T1 sequence (P42226 1-847): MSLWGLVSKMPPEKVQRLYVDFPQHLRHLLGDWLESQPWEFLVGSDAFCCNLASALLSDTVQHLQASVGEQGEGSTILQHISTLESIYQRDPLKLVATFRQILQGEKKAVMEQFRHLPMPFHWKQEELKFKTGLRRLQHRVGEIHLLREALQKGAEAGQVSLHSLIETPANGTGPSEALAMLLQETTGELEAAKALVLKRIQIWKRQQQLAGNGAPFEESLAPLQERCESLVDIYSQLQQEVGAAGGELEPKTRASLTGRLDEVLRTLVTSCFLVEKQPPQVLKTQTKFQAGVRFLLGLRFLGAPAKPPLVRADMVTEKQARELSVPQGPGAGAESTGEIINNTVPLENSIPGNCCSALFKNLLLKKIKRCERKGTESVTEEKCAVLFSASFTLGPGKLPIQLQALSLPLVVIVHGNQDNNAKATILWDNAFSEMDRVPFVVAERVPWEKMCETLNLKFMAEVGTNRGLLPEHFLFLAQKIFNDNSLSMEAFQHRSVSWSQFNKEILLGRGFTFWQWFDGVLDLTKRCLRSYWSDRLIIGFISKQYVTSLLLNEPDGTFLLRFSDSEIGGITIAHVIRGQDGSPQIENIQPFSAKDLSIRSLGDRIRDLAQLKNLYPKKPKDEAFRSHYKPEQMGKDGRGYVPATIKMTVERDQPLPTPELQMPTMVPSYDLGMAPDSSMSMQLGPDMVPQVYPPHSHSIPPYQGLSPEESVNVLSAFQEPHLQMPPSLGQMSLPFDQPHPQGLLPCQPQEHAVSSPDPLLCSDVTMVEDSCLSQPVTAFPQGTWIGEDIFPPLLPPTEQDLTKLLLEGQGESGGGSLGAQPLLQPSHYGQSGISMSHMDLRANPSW
Procedure, shortened: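 Cells were plated overnight, washed, exposed to compound for two hours, stimulated with IL-13 (0.12 nM final) for four hours at 37 °C, and then lysed with Nano-Glo substrate for 15 min before luminescence reading.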

[2] = system: CCL17 secretion in peripheral human whole blood; test: Human Whole Blood (HWB) CCL17 TR-FRET Assay (IL-13 stimulated CCL17 secretion); assay type: cell-based
Experimental: The IC50 (half-maximal concentration required for inhibition) of compounds for the inhibition of CCL17 secretion in peripheral human whole blood, stimulated through the IL-13-IL-13 receptor/IL-4 receptor pathway was evaluated with a TR-FRET sandwich ELISA CCL17 (TARC) Assay Kit (Bioauxilium).
Test compounds (solubilized and serially diluted in DMSO, in an 11 point, 3-fold dilution series in duplicate) were spotted, 80 nL per well, into a 384 well v-bottom polypropylene plate. Human whole blood was collected from a peripheral vein, 714 units of sodium heparin was added for every 50 mL of blood collected. Sixty μL per well of blood was added to the compound plate. The blood plate was incubated for two hours at 37° C. After two hours, CCL17 production was stimulated with the addition of 20 μL per well of IL13 (R&D Systems) in HBSS with calcium and magnesium, with a final concentration of 10 ng/mL IL13. The plate containing blood, compound, and IL-13 was incubated at 37° C. for 48 hours, to allow for CCL17 production. After 48 hours, the plate was centrifuged at 1,500 revolutions per minute (RPM) for 7 minutes, with no braking. The CCL17 TR-FRET Assay Kit detection reagent was prepared according to kit instructions and 4 μL per well of the antibody cocktail was added to a 384-well white low volume non-binding coated plate (Corning). Sixteen μL of serum from the centrifuged blood plate was transferred to the detection plate containing the TR-FRET antibody cocktail. The plate was centrifuged briefly, then covered and incubated 16 hours at room temperature. The plate was then read on an EnVision 2105 multilabel reader (PerkinElmer) with settings for TR-FRET Ratio=10,000×(fluorescence intensity 665 nm/fluorescence intensity 615 nm).

[3] = IL-13 stimulated HaCaT STAT6 NanoLuc reporter cells
[4] = Homo sapiens, 48 h, human whole blood, IL-13 stimulated
[5] = STAT6 NanoLuc luciferase reporter, IL-13 stimulated HaCaT keratinocyte cells
[6] = inhibition of CCL17 secretion in human whole blood, 10 ng/mL IL13, 48 hours
[7] = Homo sapiens, 48 h, inhibition of CCL17 secretion in human whole blood, 10 ng/mL IL13, 48 hours

EC50 [1, 5] [nM]	IC50 [2, 7] [nM]	SMILES	other results
–	–	CC(n1nc(C(=O)NCc2ccc(NC(=O)N(C)C)cc2)c2c1[C@@H](C)CN(c1ccc(C(=O)N(C)C)cn1)C2)C(F)(F)F (mixture of isomers) [Example 262, (S)-5-(5-(dimethylcarbamoyl)pyridin-2-yl)-N-(4-(3,3-dimethylureido)benzyl)-7-methyl-1-((RS)-1,1,1-trifluoropropan-2-yl)-4,5,6,7-tetrahydro-1H-pyrazolo[4,3-c]pyridine-3-carboxamide]	EC50 [1, 3]: 1 nM; IC50 [2, 4]: 6 nM
–	–	COCC(C)n1nc(C(=O)NCc2ccc(NC(=O)N(C)C)cc2)c2c1[C@@H](C)CN(c1ccc(C(=O)N(C)C)cn1)C2 (mixture of isomers) [Example 344, (S)-5-(5-(dimethylcarbamoyl)pyridin-2-yl)-N-(4-(3,3-dimethylureido)benzyl)-1-((RS)-1-methoxypropan-2-yl)-7-methyl-4,5,6,7-tetrahydro-1H-pyrazolo[4,3-c]pyridine-3-carboxamide]	EC50 [1, 3]: 1 nM; IC50 [2, 4]: 8 nM
–	–	CC(n1nc(C(=O)NCc2ccc(NC(=O)N(C)C)cc2)c2c1[C@H](C)CN(c1ccc(C(=O)N(C)C)cn1)C2)C(F)(F)F (mixture of isomers) [Example 553, (R)-5-(5-(dimethylcarbamoyl)pyridin-2-yl)-N-(4-(3,3-dimethylureido)benzyl)-7-methyl-1-((RS)-1,1,1-trifluoropropan-2-yl)-4,5,6,7-tetrahydro-1H-pyrazolo[4,3-c]pyridine-3-carboxamide]	EC50 [1, 3]: 4 nM; IC50 ([2]; Homo sapiens, 48 h, human whole blood, 10 ng/mL IL13, 48 hours): 18 nM
–	–	CC(C)n1nc(C(=O)NCc2ccc(NC(=O)N3C[C@H]4CC[C@@H](C3)N4)c(F)c2)c2c1[C@@H](C)CN(c1ccc(C(=O)N(C)C)cc1)C2 (mixture of isomers) [Example 573, (S)-N-(4-((1RS,5SR)-3,8-diazabicyclo[3.2.1]octane-3-carboxamido)-3-fluorobenzyl)-5-(4-(dimethylcarbamoyl)phenyl)-1-isopropyl-7-methyl-4,5,6,7-tetrahydro-1H-pyrazolo[4,3-c]pyridine-3-carboxamide]	EC50 [1, 3]: 1 nM; IC50 ([2]; human whole blood, 10 ng/mL IL13, 48 hours): 11 nM
69	561	CN(C)C(=O)Nc1ccc(CNC(=O)c2nn(C)c3c2CC(c2ccc(C(=O)N(C)C)cc2)CC3)cc1 (racemic) [Example 26, rac-(R)-5-(4-(Dimethylcarbamoyl)phenyl)-N-(4-(3,3-dimethylureido)benzyl)-1-methyl-4,5,6,7-tetrahydro-1H-indazole-3-carboxamide]	–
9	39	CC1Cc2c(c(C(=O)NCc3ccc(NC(=O)N(C)C)cc3)nn2C)CN1c1ccc(C(=O)N(C)C)cn1 (racemic) [Example 49, rac-(R)-5-(5-(dimethylcarbamoyl)pyridin-2-yl)-N-(4-(3,3-dimethylureido)benzyl)-1,6-dimethyl-4,5,6,7-tetrahydro-1H-pyrazolo[4,3-c]pyridine-3-carboxamide]	–
10	12	CC1c2c(C(=O)NCc3ccc(NC(=O)N(C)C)cc3)nn(C)c2CCN1c1ccc(C(=O)N(C)C)cn1 (racemic) [Example 55, rac-(R)-5-(5-(dimethylcarbamoyl)pyridin-2-yl)-N-(4-(3,3-dimethylureido)benzyl)-1,4-dimethyl-4,5,6,7-tetrahydro-1H-pyrazolo[4,3-c]pyridine-3-carboxamide]	–
98	182	CCC1CN(c2ccc(C(=O)N(C)C)cn2)Cc2c(C(=O)NCc3ccc(NC(=O)N(C)C)cc3)n[nH]c21 (racemic) [Example 57, rac-(R)-5-(5-(dimethylcarbamoyl)pyridin-2-yl)-N-(4-(3,3-dimethylureido)benzyl)-7-ethyl-4,5,6,7-tetrahydro-1H-pyrazolo[4,3-c]pyridine-3-carboxamide]	–
3	27	CC1CN(c2ccc(-c3nccn3C)cn2)Cc2c(C(=O)NCc3ccc(NC(=O)N(C)C)cc3)nn(C)c21 (racemic) [Example 59, rac-(R)-N-(4-(3,3-dimethylureido)benzyl)-1,7-dimethyl-5-(5-(1-methyl-1H-imidazol-2-yl)pyridin-2-yl)-4,5,6,7-tetrahydro-1H-pyrazolo[4,3-c]pyridine-3-carboxamide]	–
9	66	CC(C1CC1)n1nc(C(=O)NCc2ccc(NC(=O)N(C)C)cc2)c2c1CCN(c1ccc(C(=O)N(C)C)cn1)C2 (racemic) [Example 62, rac-(R)-1-(1-cyclopropylethyl)-5-(5-(dimethylcarbamoyl)pyridin-2-yl)-N-(4-(3,3-dimethylureido)benzyl)-4,5,6,7-tetrahydro-1H-pyrazolo[4,3-c]pyridine-3-carboxamide]	–
2	14	CCn1nc(C(=O)NCc2ccc(NC(=O)N(C)C)cc2)c2c1C(C)CN(c1ccc(C(=O)N(C)C)cn1)C2 (racemic) [Example 71, rac-(R)-5-(5-(dimethylcarbamoyl)pyridin-2-yl)-N-(4-(3,3-dimethylureido)benzyl)-1-ethyl-7-methyl-4,5,6,7-tetrahydro-1H-pyrazolo[4,3-c]pyridine-3-carboxamide]	–

SMILES	EC50 [1, 5] [nM]	IC50 [2, 7] [nM]	other results
CC1CN(c2ccc(C(=O)N(C)C)cn2)Cc2c(C(=O)NCc3ccc(NC(=O)N(C)C)cc3)nn(C)c21 (racemic) [Example 6, rac-(R)-5-(5-(Dimethylcarbamoyl)pyridin-2-yl)-N-(4-(3,3-dimethylureido)benzyl)-1,7-dimethyl-4,5,6,7-tetrahydro-1H-pyrazolo[4,3-c]pyridine-3-carboxamide]	4	–	IC50 [2, 6]: 25 nM
Cc1nc(C(=O)NCc2ccc(NC(=O)N(C)C)cc2)c2n1C(C)CN(c1ccc(C(=O)N(C)C)cn1)C2 (racemic) [Example 9, rac-(R)-7-(5-(Dimethylcarbamoyl)pyridin-2-yl)-N-(4-(3,3-dimethylureido)benzyl)-3,5-dimethyl-5,6,7,8-tetrahydroimidazo[1,5-a]pyrazine-1-carboxamide formate]	15	–	IC50 [2, 6]: 27 nM
CN(C)C(=O)Nc1ccc(CNC(=O)c2nn(C)c3c2[C@H]2CCC[C@@H](C3)N2c2ccc(C(=O)N(C)C)cn2)cc1 (racemic) [Example 68, rac-(4R,8S)-10-(5-(dimethylcarbamoyl)pyridin-2-yl)-N-(4-(3,3-dimethylureido)benzyl)-1-methyl-4,5,6,7,8,9-hexahydro-1H-4,8-epiminocycloocta[c]pyrazole-3-carboxamide]	9	–	IC50 [2, 6]: 43 nM
CN(C)C(=O)Nc1ccc(CNC(=O)c2nn(C)c3c2[C@@H]2COC[C@H](C3)N2c2ccc(C(=O)N(C)C)cn2)cc1 (racemic) [Example 72, rac-(4R,8S)-10-(5-(dimethylcarbamoyl)pyridin-2-yl)-N-(4-(3,3-dimethylureido)benzyl)-1-methyl-1,4,5,7,8,9-hexahydro-4,8-epiminooxocino[5,4-c]pyrazole-3-carboxamide]	308	1100	–
